The species named for test [1] is Rattus norvegicus. The test is described as follows: animal or person. As to conditions: Plasma, po, 8 h, read-out: INH.
The species entered for test [2] is Rattus norvegicus. The test is described as follows: animal or person. Conditions: Plasma, po, 0.5 h, read-out: INH.
Test [3] addresses T1, Dipeptidyl peptidase 4 (Homo sapiens, UniProt P27487).
In the next test the target is Dipeptidyl peptidase 8 (Homo sapiens, UniProt Q6V1X1).
The target of test [4] is T2, Dipeptidyl peptidase 9 (Homo sapiens, UniProt Q86TI2). The test is described as follows: Inhibition of DPP9 at 20 uM.
Target sequence in this assay (Q86TI2 2-863 limits assumed): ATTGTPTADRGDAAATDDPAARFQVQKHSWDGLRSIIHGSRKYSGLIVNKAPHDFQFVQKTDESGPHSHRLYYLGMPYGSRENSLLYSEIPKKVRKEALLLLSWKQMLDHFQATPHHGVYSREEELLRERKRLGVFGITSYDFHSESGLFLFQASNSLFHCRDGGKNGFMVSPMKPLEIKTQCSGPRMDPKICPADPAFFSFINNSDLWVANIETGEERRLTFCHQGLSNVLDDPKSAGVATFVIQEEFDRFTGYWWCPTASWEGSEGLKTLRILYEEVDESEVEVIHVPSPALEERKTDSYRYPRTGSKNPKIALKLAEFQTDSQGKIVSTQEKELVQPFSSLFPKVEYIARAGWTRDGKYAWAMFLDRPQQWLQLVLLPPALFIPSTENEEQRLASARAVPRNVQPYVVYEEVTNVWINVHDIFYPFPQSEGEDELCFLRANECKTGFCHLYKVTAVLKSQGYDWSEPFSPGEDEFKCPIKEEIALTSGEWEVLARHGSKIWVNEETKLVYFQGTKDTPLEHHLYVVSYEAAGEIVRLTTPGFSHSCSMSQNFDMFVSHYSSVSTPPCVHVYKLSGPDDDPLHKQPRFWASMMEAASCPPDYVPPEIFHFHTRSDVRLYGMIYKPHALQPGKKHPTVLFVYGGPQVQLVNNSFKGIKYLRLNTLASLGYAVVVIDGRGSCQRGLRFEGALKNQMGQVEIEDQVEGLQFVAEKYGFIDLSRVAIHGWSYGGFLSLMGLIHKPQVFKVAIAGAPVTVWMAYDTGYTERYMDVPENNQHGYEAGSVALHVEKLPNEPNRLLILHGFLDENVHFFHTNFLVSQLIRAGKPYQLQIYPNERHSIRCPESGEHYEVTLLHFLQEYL
The target of test [5] is T2, Dipeptidyl peptidase 9. The test is described as follows: Inhibition of DPP9.
Target sequence in this assay (Q86TI2 whole entry): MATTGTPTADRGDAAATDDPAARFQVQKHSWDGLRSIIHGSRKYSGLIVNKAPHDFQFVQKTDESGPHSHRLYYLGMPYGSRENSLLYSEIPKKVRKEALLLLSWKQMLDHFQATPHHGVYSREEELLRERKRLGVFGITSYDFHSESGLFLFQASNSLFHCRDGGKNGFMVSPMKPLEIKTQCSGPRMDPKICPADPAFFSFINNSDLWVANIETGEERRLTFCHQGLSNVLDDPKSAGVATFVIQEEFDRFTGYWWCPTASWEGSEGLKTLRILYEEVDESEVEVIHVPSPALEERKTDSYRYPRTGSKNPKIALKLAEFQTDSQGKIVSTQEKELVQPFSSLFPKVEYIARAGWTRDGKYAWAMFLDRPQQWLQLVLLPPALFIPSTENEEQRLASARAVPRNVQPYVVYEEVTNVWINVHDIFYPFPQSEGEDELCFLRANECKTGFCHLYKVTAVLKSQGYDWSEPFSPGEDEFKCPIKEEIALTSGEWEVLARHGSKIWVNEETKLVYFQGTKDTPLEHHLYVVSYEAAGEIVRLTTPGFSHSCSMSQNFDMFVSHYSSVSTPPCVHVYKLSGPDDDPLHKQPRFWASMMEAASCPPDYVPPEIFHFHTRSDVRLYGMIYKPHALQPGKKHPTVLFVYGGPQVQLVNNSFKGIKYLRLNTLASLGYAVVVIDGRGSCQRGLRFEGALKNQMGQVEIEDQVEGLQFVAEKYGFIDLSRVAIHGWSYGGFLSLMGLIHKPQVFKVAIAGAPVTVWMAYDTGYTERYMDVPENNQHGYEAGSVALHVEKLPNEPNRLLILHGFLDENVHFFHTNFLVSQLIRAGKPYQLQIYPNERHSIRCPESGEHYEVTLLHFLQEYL
Test [6] deals with T1, Dipeptidyl peptidase 4. This is another data set of the same source.

T1 sequence (P27487 whole entry): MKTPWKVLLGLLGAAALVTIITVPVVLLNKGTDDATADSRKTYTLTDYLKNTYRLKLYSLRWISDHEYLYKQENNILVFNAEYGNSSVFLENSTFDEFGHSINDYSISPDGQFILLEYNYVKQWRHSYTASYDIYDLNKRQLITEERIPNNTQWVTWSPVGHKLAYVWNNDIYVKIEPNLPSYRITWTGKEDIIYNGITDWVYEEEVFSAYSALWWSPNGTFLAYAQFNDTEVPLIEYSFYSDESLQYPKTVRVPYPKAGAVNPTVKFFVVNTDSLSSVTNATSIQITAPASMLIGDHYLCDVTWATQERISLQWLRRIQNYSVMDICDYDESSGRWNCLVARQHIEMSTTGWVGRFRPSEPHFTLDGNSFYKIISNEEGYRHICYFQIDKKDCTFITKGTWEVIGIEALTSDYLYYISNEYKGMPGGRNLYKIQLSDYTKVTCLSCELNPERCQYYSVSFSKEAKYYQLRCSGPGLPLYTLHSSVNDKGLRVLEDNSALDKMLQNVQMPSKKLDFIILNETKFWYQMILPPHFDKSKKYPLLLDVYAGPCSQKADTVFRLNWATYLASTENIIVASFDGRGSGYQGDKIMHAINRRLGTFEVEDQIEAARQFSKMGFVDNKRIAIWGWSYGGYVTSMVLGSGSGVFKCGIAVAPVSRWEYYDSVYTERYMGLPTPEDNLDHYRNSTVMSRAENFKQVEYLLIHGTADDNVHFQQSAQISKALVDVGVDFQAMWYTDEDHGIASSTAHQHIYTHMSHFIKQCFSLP
Chain of Dipeptidyl peptidase 8 (Q6V1X1 whole entry): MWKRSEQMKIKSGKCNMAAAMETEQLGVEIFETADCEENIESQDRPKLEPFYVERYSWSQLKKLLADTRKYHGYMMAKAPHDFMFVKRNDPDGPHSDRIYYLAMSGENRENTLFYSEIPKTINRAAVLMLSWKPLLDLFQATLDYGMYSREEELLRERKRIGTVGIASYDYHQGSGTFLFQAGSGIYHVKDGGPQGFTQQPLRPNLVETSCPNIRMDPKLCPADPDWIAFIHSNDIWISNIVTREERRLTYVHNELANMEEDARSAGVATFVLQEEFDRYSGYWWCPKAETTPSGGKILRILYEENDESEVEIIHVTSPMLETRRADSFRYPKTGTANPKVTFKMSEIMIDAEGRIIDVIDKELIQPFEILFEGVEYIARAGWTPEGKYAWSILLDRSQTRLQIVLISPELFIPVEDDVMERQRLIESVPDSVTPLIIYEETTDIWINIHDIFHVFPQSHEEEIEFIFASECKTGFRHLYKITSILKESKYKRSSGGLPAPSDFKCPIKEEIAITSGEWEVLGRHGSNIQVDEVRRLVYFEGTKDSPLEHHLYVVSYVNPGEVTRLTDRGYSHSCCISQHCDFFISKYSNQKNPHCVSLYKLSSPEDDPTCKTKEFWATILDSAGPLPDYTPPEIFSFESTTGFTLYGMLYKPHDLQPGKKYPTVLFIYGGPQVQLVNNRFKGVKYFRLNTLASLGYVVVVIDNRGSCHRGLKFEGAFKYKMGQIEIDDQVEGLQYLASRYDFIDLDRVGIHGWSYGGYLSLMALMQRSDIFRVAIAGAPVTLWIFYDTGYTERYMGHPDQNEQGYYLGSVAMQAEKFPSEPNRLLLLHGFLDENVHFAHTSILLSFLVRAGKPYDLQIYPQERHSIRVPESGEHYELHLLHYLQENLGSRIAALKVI

As for `N[C@@H](CC(=O)N1CCn2c(nnc2C(F)(F)F)C1)Cc1cc(F)c(F)cc1F` [SITAGLIPTIN], the inhibition in vivo at 3 mg/kg amounted to 20% in the test listed under Rattus norvegicus [1] and 30% in the test filed under Rattus norvegicus [2].

A word on the IC50: it is the midpoint of a concentration-inhibition curve. Usually inhibition stands for the percentage by which the read-out fell short of the control. High values mean strong suppression, low ones little suppression. As for `CC(C)(CC(=O)N1CC=CCC1)NCC(=O)N1C[C@@H](F)C[C@H]1C#N`, the inhibition in vivo at 3 mg/kg in the test listed under Rattus norvegicus [1] came out at 70%; in the test filed under Rattus norvegicus [2], 85%. Besides, the IC50 against Dipeptidyl peptidase 4 [3] was 18 nM; against Dipeptidyl peptidase 8, > 20000 nM. The same compound showed an inhibition on Dipeptidyl peptidase 9 [4] of 50%.

As for `CC(C)(CC(=O)N1CCN(S(C)(=O)=O)CC1)NCC(=O)N1C[C@@H](F)C[C@H]1C#N`, the IC50 is > 20000 nM on Dipeptidyl peptidase 9 [5], 15 nM against Dipeptidyl peptidase 4 [6], 24 nM at Dipeptidyl peptidase 4 [3] and > 20000 nM against Dipeptidyl peptidase 8. Moreover, the figures for the inhibition in vivo at 3 mg/kg in the test filed under Rattus norvegicus [1] and in the test listed under Rattus norvegicus [2] were 7% and 64%, respectively.

Consider `CC(C)(CC(=O)NC1CCCC1)NCC(=O)N1C[C@@H](F)C[C@H]1C#N`, for which the IC50 was > 20000 nM on Dipeptidyl peptidase 9 [5], 29 nM on Dipeptidyl peptidase 4 [3] and > 20000 nM against Dipeptidyl peptidase 8. In addition, the inhibition in vivo at 3 mg/kg in the test listed under Rattus norvegicus [1] was determined as 60%; in the test filed under Rattus norvegicus [2] it was 81%.

Turning to `CC(C)(CC(=O)N1CCCCC1)NCC(=O)N1C[C@@H](F)C[C@H]1C#N`, the IC50 was > 20000 nM against Dipeptidyl peptidase 9 [5], 14 nM against Dipeptidyl peptidase 4 [6], 27 nM against Dipeptidyl peptidase 4 [3] and > 20000 nM against Dipeptidyl peptidase 8. Moreover, the inhibition in vivo at 3 mg/kg was 74% in the test listed under Rattus norvegicus [1] and 86% in the test filed under Rattus norvegicus [2].

In the case of `CC(C)(CC(=O)N1CCCCCC1)NCC(=O)N1C[C@@H](F)C[C@H]1C#N`, the IC50 at Dipeptidyl peptidase 9 [5] was > 20000 nM; at Dipeptidyl peptidase 4 [3], 160 nM; against Dipeptidyl peptidase 8 it was > 20000 nM.

Turning to `CCOC(=O)N1CCN(C(=O)CC(C)(C)NCC(=O)N2C[C@@H](F)C[C@H]2C#N)CC1`, the IC50 was > 20000 nM at Dipeptidyl peptidase 9 [5], 63 nM at Dipeptidyl peptidase 4 [3] and > 20000 nM at Dipeptidyl peptidase 8.

Consider `CC(C)(CC(=O)N1C2CCC1CC2)NCC(=O)N1C[C@@H](F)C[C@H]1C#N`, for which the IC50 at Dipeptidyl peptidase 9 [5] was > 20000 nM; against Dipeptidyl peptidase 4 [3] it was 66 nM; against Dipeptidyl peptidase 8 it was > 20000 nM.

`CC(C)(CC(=O)N1CC[C@@H](O)C1)NCC(=O)N1CCC[C@H]1C#N`: the results for the IC50 against Dipeptidyl peptidase 9 [5], against Dipeptidyl peptidase 4 [3] and on Dipeptidyl peptidase 8 were > 20000 nM, 180 nM and > 20000 nM, respectively.

For the compound `CC(C)(CC(=O)N1CCCC1)NCC(=O)N1CCC[C@H]1C#N`, the IC50 against Dipeptidyl peptidase 9 [5] and against Dipeptidyl peptidase 8 was > 20000 nM throughout.

Regarding `CN1CCN(C(=O)CC(C)(C)NCC(=O)N2C[C@@H](F)C[C@H]2C#N)CC1`, the IC50 against Dipeptidyl peptidase 4 [3] was 93 nM; on Dipeptidyl peptidase 8 it was > 20000 nM. Besides, at Dipeptidyl peptidase 9 [4], the inhibition is 86%.

For the compound `N#C[C@@H]1CCCN1C(=O)CNC12CC3CC(CC(O)(C3)C1)C2` [VILDAGLIPTIN], the values for the inhibition in vivo at 3 mg/kg in the test filed under Rattus norvegicus [1] and in the test filed under Rattus norvegicus [2] were 73% and 84%, respectively.

With `CC(C)(CC(=O)N1CC[C@H](O)C1)NCC(=O)N1C[C@@H](F)C[C@H]1C#N`, the IC50 on Dipeptidyl peptidase 9 [5] was > 20000 nM; on Dipeptidyl peptidase 4 [3], 50 nM; on Dipeptidyl peptidase 8, > 20000 nM.

Turning to `CC(C)(CC(=O)N1CCC(=O)CC1)NCC(=O)N1C[C@@H](F)C[C@H]1C#N`, the figures for the IC50 against Dipeptidyl peptidase 9 [5], against Dipeptidyl peptidase 4 [3] and on Dipeptidyl peptidase 8 were > 20000 nM, 26 nM and > 20000 nM, respectively.

Take `CC(C)(CC(=O)N1CC[C@@H](F)C1)NCC(=O)N1C[C@@H](F)C[C@H]1C#N`: the IC50 at Dipeptidyl peptidase 9 [5] and at Dipeptidyl peptidase 8 was > 20000 nM each time.

In the case of `C[C@@H]1CCCN1C(=O)CC(C)(C)NCC(=O)N1C[C@@H](F)C[C@H]1C#N`, the IC50 on Dipeptidyl peptidase 9 [5] is > 20000 nM; against Dipeptidyl peptidase 4 [3] it was 32 nM; at Dipeptidyl peptidase 8 it was > 20000 nM. Moreover, the inhibition in vivo at 3 mg/kg in the test listed under Rattus norvegicus [1] came to 48%; in the test listed under Rattus norvegicus [2] it was 75%.

Consider `CC(C)(CC(=O)N1CCC[C@H]1CO)NCC(=O)N1C[C@@H](F)C[C@H]1C#N`, for which the 50% inhibitory concentration (IC50) at Dipeptidyl peptidase 9 [5] was > 20000 nM; on Dipeptidyl peptidase 4 [3], 24 nM; at Dipeptidyl peptidase 8 it was > 20000 nM.

Turning to `CC(C)(CC(=O)N1CCSC1)NCC(=O)N1C[C@@H](F)C[C@H]1C#N`, the IC50 at Dipeptidyl peptidase 9 [5] was > 20000 nM; at Dipeptidyl peptidase 4 [3], 27 nM; against Dipeptidyl peptidase 8, > 20000 nM. The values for the inhibition in vivo at 3 mg/kg in the test listed under Rattus norvegicus [1] and in the test filed under Rattus norvegicus [2] were 56% and 77%, respectively.

The values are drawn from ChEMBL document CHEMBL1158599, “(2S,4S)-1-[2-(1,1-dimethyl-3-oxo-3-pyrrolidin-1-yl-propylamino)acetyl]-4-fluoro-pyrrolidine-2-carbonitrile: a potent, selective, and orally bioavailable dipeptide-derived inhibitor of dipeptidyl peptidase IV” (Bioorg Med Chem Lett, 2010).
